“Also recorded” adds a separate entry of the source.
How the values were obtained:
Parameters in all cases: species or system human
[1] = Buffering effect on pH of saliva following acid challenge with dilute hydrochloric acid; conditions: 0.01 M HCl 6 mL; for acid buffering effect / pH of treated saliva after acid exposure: 20 min; for acid buffering effect: room temperature, Donors 1-3; for pH of treated saliva after acid exposure: all donors
Protocol: (§1) Aqueous solutions containing arginine and zinc salts were created to carry out the following Examples. Solution 1 was prepared by mixing L-arginine (0.375 g), zinc oxide (ZnO, 0.25 g), and zinc citrate trihydrate (0.125 g) in deionized water (24.25 mL). These values correspond to the following percentages by mass: 1.5% L-arginine, 1% ZnO, 0.5% zinc citrate trihydrate. Additional control solutions were prepared of each regent alone at equal concentrations. Each solution was diluted to 25 g total mass with deionized water.
Paraffin-stimulated whole saliva was collected from three healthy subjects (Donors 1-3). Each saliva sample was mixed by ordinary means in the art. Immediately prior to analysis, the ex-vivo saliva samples were pretreated with aliquots of the simple solutions to give a range of active dilutions (i.e., total Zn^2+ concentration of about 0-1500 ppm) including an untreated control. The concentrations of actives (i.e., zinc oxide/zinc citrate/arginine, L-arginine, zinc oxide, zinc citrate) were varied between 0.0% to 50% across all samples, as shown in FIGS. 5-10.
An initial pH of the treated sample was obtained. Dilute hydrochloric acid (HCl, 0.01 M, 6 mL) was added to each saliva sample. The resultant was mixed for 20 minutes at room temperature. The pH of the sample was recorded at the conclusion of the reaction time. Zinc concentration in each sample was determined by ICP-AES.

[2] = Buffering effect on pH of saliva following sucrose challenge (bacterial acid production); conditions: for effect on pH drop after sucrose challenge versus untreated control: Donors A-C, range of concentrations, 2, 4, 6 hours and overnight
Protocol: as §1
Paraffin-stimulated whole saliva was collected from three healthy subjects (Donors A-C). Each saliva sample was mixed by ordinary means in the art. Prior to analysis, the ex-vivo saliva samples were pretreated with aliquots of the simple solutions to give a range of active dilutions (i.e., total Zn^2+ concentration of about 0-3000 ppm) including an untreated control in order to test for buffering effect against sucrose challenge as a function of zinc concentration. An initial pH of the treated sample was obtained. A sucrose solution (5%, 1 mL) was added to each saliva sample. The resultant was mixed for and then incubated at 37° C. and the pH was monitored at 2 hours, 4 hours, 6 hours, and overnight. Zinc concentration in each sample was determined by ICP-AES.
Further experiments were conducted to ensure that zinc oxide/zinc citrate/arginine, not its constituent parts, was needed to achieve the buffering capacity improvement described. The solutions tested were prepared according to the specifications as laid out in Table 3 above.

[3] = Buffering effect on pH of saliva following acid challenge with cola beverage; conditions: cola titration; 0.0625% reagent; FIG. 2
Protocol: as §1
Paraffin-stimulated whole saliva was collected from a healthy subject. Each saliva sample was mixed by an appropriate means. Immediately prior to analysis, the ex-vivo saliva samples were pretreated with aliquots of Solution 1 to give a range of active dilutions. A control sample containing untreated whole saliva was also prepared for comparison. The dilutions were prepared as in Table 2.
The samples as described in Table 2 were tested for buffering effect on the pH of saliva following acid challenge with a cola beverage. Initial pH values of the treated samples were obtained. A cola beverage (1 mL) was added to the saliva sample. The resultant was mixed for 30 seconds at room temperature at the conclusion of which the pH of the sample was recorded. This process was repeated step-wise up to a total of 40 mL of cola. […]

[4] = Buffering effect on pH of saliva following acid challenge with orange juice; conditions: 0.0625% reagent in saliva (Table 3); FIG. 4
Protocol: as §1
Four solutions containing whole saliva and zinc oxide/zinc citrate/arginine at varying proportions were prepared in accordance with the methods laid out in Example 1 above. The solutions contained the same concentrations as Samples 1-4 as defined in Table 2. The samples were tested for buffering effect on the pH of saliva following acid challenge with orange juice. Initial pH values of the treated samples were obtained. Orange juice (0.1 mL) was added to the saliva sample. The resultant was mixed for 30 seconds at room temperature at the conclusion of which the pH of the sample was recorded. This process was repeated step-wise up to a total of 3.0 mL of orange juice. After this point, orange juice was added to the samples in an amount of 0.5 mL up to 5.0 mL. […]

| SMILES | amount of solution able to match the buffering effect of 200 μL or less zinc oxide/zinc citrate/arginine ([1]; FIGS. 5-7) | buffering effect of the 100 ppm arginine solution ([2]; donor C, FIG. 14) | buffering effect of the 100 ppm arginine solution ([2]; donors A or B, FIGS. 12-13) | shift of isoelectric point in comparison to the untreated sample [3] | acid buffering effect ([1]; FIGS. 5-7) | pH of treated saliva after acid exposure [1] | effect on pH drop after sucrose challenge versus untreated control [2] | ability to buffer the acidic orange juice compared with controls [4] |
| --- | --- | --- | --- | --- | --- | --- | --- | --- |
| N=C(N)NCCC[C@H](N)C(=O)O [arginine, L-arginine] | > 500 µL | modest buffering was observed | not seen | acid shifted the isoelectric point in comparison to the untreated sample providing no acid neutralization benefit |  |  |  |  |
| O.O.O.O=C([O-])CC(O)(CC(=O)[O-])C(=O)[O-].O=C([O-])CC(O)(CC(=O)[O-])C(=O)[O-].[Zn+2].[Zn+2].[Zn+2] [zinc citrate, zinc citrate trihydrate] |  |  |  | acid shifted the isoelectric point in comparison to the untreated sample providing no acid neutralization benefit | little to no buffering effect at all | below 4.0 | Buffering effects were observed over the untreated control of each of the donors | no benefit in comparison the untreated control |
| [O]=[Zn] [zinc oxide] |  |  |  |  | some pH stabilization; also recorded: not showing a dose response above 0.1% treatment | lower in saliva treated with ZnO than zinc oxide/zinc citrate/arginine treated saliva | Buffering effects were clearly observed over the untreated control of each of the donors |  |
